Source: patent US8956824B2, “Methods for identifying allosteric modulators of ship polypeptides” (British Columbia Cancer Agency Branch, priority 2006, dated 2015)
Entries after “also recorded” stand apart in the source; their conditions may differ.

Key:
[1] = tested on: DNFB-induced ear inflammation; experiment: Mouse acute cutaneous anaphylaxis model; format: in vivo; conditions: topical
Procedure: Mouse acute cutaneous anaphylaxis model. 6-8 week old CD1 mice (University of British Columbia Animal Facility, Vancouver, BC) were sensitized to the hapten DNP by cutaneous application of 25 μL of 0.5% dinitroflourobenzene (DNFB) (Sigma, Oakville, Ont) in acetone to the shaved abdomen of mice for two consecutive days. In the AQX-016A experiments shown in FIG. 2F, 20 μCi of tritiated thymidine [3H]-Tdr (GE Healthcare, Piscataway, N.J.) was injected EP one week after the first DNFB application. [3H]-Tdr labels rapidly dividing cells of the mouse, including neutrophils (21). […] The resulting inflammatory cell infiltration was quantitated by taking a 6mm diameter punch from the ear 1 hr later for dissolution in SOLVABLE™ (Perkin Elmer-Packard, Woodbridge, Ont) and liquid scintillation counting as described (21). The ability of test substances to inhibit mast cell degranulation was then determined by calculating the ratio of [3H]-Tdr in the test (right) ear vs the control (left) ear as described (21). […]
In the later AQX-MN100 experiments, shown in FIG. 3E, the mice were sensitized as above with DNFB. […] Optical density readings at 450 nm were taken over 10 min at 30 s intervals. MPO activity was calculated as described (22) and expressed as Units per mg of protein per mL of lysate. […]

[2] = biological target: T1, C2 domain deleted (ΔC2) SHIP1 enzyme (Mus musculus, UniProt Q9ES52, DEL725-860/G861A/K862A/M863A); experiment: In vitro SHIP enzyme assay, C2 domain deleted SHIP1; format: biochemical; conditions: FIG. 4B, FIG. 10
T1 construct: Full length, wild-type SHIP1 enzyme (wt) or SHIP1 enzyme in which the PH or C2 domains were deleted; made in house; 293T cells are stated only for the wild-type enzyme
T1 sequence (Q9ES52 with tags, fused parts or gaps DEL725-860/G861A/K862A/M863A limits assumed): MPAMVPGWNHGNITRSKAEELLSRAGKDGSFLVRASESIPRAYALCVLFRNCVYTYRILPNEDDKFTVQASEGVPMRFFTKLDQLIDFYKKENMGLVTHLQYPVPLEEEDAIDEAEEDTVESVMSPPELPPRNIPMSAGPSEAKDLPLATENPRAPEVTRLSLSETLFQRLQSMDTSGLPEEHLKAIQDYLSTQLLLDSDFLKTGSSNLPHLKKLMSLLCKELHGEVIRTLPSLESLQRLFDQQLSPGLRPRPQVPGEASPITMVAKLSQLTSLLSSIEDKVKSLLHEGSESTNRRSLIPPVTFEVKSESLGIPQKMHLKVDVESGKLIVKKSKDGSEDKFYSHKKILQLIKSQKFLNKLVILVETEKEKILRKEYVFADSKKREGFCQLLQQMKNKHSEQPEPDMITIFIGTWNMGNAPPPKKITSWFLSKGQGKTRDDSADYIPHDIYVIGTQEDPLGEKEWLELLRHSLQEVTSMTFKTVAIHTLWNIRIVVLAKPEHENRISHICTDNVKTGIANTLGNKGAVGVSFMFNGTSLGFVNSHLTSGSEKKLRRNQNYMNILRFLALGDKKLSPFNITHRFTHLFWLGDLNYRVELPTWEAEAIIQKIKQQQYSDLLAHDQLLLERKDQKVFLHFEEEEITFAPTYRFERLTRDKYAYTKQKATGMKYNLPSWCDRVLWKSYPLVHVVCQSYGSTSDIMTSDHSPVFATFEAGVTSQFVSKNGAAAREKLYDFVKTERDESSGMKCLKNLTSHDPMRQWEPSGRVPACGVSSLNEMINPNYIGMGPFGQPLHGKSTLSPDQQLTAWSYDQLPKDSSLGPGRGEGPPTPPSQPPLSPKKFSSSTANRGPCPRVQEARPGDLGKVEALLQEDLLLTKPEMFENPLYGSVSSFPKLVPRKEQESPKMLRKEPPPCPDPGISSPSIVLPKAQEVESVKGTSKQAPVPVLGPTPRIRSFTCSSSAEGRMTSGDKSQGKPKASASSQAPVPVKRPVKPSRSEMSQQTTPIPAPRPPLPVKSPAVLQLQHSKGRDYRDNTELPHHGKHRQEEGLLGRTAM
Source text: The mouse SHIP1 ΔC2 domain deletion mutant was generated by a standard PCR-based methodology using the primer pairs listed above, which in addition to being complementary to sequences immediately upstream and downstream of the C2 domain (amino acid residues 725 to 863), introduces a NotI restriction site. The PCR-products were digested with ClaI and NotI, and NotI and XbaI for the upstream and downstream fragments, respectively. Products were then resolved and imaged on a 1% agarose gel containing ethidium bromide and the appropriate sized fragments excised and purified using a column gel extraction kit (Qiagen, Mississauga, ON). In parallel, pME18S plasmid containing the cDNA for N-terminal His6-tagged SHIP1 was digested with ClaI and NotI, resolved and purified as before. Upstream fragment, downstream fragment and digested pME18S-SHIP plasmid were ligated to yield a plasmid coding for SHIP1 with the C2 domain deleted. An N-terminal His6 C2 domain was also generated by PCR using the primer pair indicated above and the resulting product inserted into the pET28C bacterial expression vector using EcoRI and NdeI restriction sites.
In vitro SHIP enzyme assay. The SHIP enzyme assay was performed in 96-well microtitre plates with 10 ng of enzyme/well in a total volume of 25 μL of 20 mM Tris HCl, pH 7.5 and 10 mM MgCl2. SHIP1 enzyme was incubated with test extracts (provided in DMSO) or vehicle for 15 mM at 23° C. before the addition of 100 μM inositol-1,3,4,5-tetrakisphosphate (Echelon Biosciences Inc, Salt Lake City, Utah). The reaction was allowed to proceed for 20 min at 37° C. and the amount of inorganic phosphate released assessed by the addition of Malachite Green reagent followed by an absorbance measurement at 650 nm (15). SHIP2 enzyme was purchased from Echelon Biosciences (Salt Lake City, Utah) and an equivalent amount of inositol phosphatase activity was used in the in vitro enzyme assay. Enzyme data are expressed as the mean of triplicates+/−SEM. Experiments were performed at least 3 times.

Molecule: Cc1cc(O)c(O)c2c1[C@]1(C)CC[C@H]3C(C)(C)CCC[C@]3(C)[C@H]1C2 [AQX-016A]
- allergen-induced inflammation (inflammatory cell recruitment to ear, [3H]-Tdr) ([1]; 30 min prior to DNFB, vs vehicle control-treated ear): dramatically inhibited allergen-induced inflammation

Molecule: Cc1cc(O)cc2c1[C@]1(C)CC[C@H]3C(C)(C)CCC[C@]3(C)[C@H]1C2 [AQX-MN100]
- activation of SHIP1 with C2 domain deleted [2]: impaired the ability of SHIP1 to be activated; also recorded: abrogates the ability of SHIP1 to be activated
- myeloperoxidase (MPO) levels in ears of allergen-challenged mice ([1]; P-value <0.02 vs vehicle): reduced the levels of the inflammatory cell (neutrophil) specific myeloperoxidase enzyme; also recorded: inhibits DNFB-induced MPO in sensitized mice

Molecule: phosphatidylinositol-3,4-bisphosphate [PI-3,4-P2, reference compound]
- activation of SHIP1 with C2 domain deleted [2]: impaired the ability of SHIP1 to be activated
- activation of SHIP1 with C2 domain deleted ([2]; listed as PI(3,4)P2): abrogates ability to be activated
